Test results: publication PMC11953117 (Cancer Chemotherapy and Pharmacology, 2025)

Assay: Safety endpoints (treatment-emergent AEs, CTCAE v4) in three phase 1 studies
Assay type: in vivo, human
Source text: AEs were collected throughout the trials, graded using Common Terminology Criteria for Adverse Events v4. Treatment-emergent AEs (TEAEs), defined as any AE that started after the first dose of study treatment or that started prior to dosing and worsened during on treatment period (by investigator report of a change in intensity) following exposure to treatment, were included in the analysis.
The rash AE endpoint pooled the following Medical Dictionary for Regulatory Activities (MedDRA) preferred terms: rash maculo-papular, rash macular, rash, rash generalized, rash papular and rash pruritic, while the diarrhea AE and hyperglycemia AE included the MedDRA preferred terms diarrhea and hyperglycemia, respectively.
The grade selection for diarrhea and rash was based on clinical relevance in terms of limiting quality of life; for hyperglycemia the grade was higher considering this is a pharmacodynamic effect of AKT inhibition and often seen as asymptomatic change of laboratory value only.

[1] = Continuous BID, 80 mg, N=8, pooled studies
[2] = Continuous BID, 160 mg, N=5, pooled studies
[3] = Continuous BID, 240 mg, N=13, pooled studies
[4] = Continuous BID, 320 mg, N=18, pooled studies
[5] = Continuous BID, 400 mg, N=16, pooled studies
[6] = Continuous BID, 480 mg, N=6, pooled studies
[7] = Continuous BID, 600 mg, N=2, pooled studies
[8] = Total, all doses and schedules, N=277
[9] = [2/5] BID, 640 mg, N=14, pooled studies
[10] = [2/5] BID, 800 mg, N=14, pooled studies
[11] = [4/3] BID, 360 mg, N=8, pooled studies
[12] = [4/3] BID, 480 mg, N=163, pooled studies
[13] = [4/3] BID, 640 mg, N=10, pooled studies
[14] = in total, across all doses and schedules

## NC1(C(=O)N[C@@H](CCO)c2ccc(Cl)cc2)CCN(c2ncnc3[nH]ccc23)CC1 [capivasertib, 4-amino-N-[(1S)-1-(4-chlorophenyl)-3-hydroxypropyl]-1-(7H-pyrrolo[2,3-d]pyrimidin– 4-yl)piperidine-4-carboxamide]
[1]
  AE grade ≥ 1: 8 (100) n (%)
  AE grade ≥ 3: 2 (25.0) n (%)
  AEDD (AE leading to dose discontinuation): 0 n (%)
  AEDM (AE leading to dose modification): 2 (25.0) n (%)
  Diarrhea AE grade ≥ 2: 0 n (%)
  Hyperglycemia AE grade ≥ 3: 0 n (%)
  Increased BG > 13.9 mmol/L: 0 n (%)
  Rash AE grade ≥ 2: 1 (12.5) n (%)
  SAE: 2 (25.0) n (%)
[2]
  AE grade ≥ 1: 5 (100) n (%)
  AE grade ≥ 3: 0 n (%)
  AEDD (AE leading to dose discontinuation): 0 n (%)
  AEDM (AE leading to dose modification): 1 (20.0) n (%)
  Diarrhea AE grade ≥ 2: 0 n (%)
  Hyperglycemia AE grade ≥ 3: 0 n (%)
  Increased BG > 13.9 mmol/L: 0 n (%)
  Rash AE grade ≥ 2: 1 (20.0) n (%)
  SAE: 1 (20.0) n (%)
[3]
  AE grade ≥ 1: 12 (92.3) n (%)
  AE grade ≥ 3: 4 (30.8) n (%)
  AEDD (AE leading to dose discontinuation): 1 (7.7) n (%)
  AEDM (AE leading to dose modification): 2 (15.4) n (%)
  Diarrhea AE grade ≥ 2: 4 (30.8) n (%)
  Hyperglycemia AE grade ≥ 3: 2 (15.4) n (%)
  Increased BG > 13.9 mmol/L: 4 (30.8) n (%)
  Rash AE grade ≥ 2: 3 (23.1) n (%)
  SAE: 0 n (%)
[4]
  AE grade ≥ 1: 18 (100) n (%)
  AE grade ≥ 3: 10 (55.6) n (%)
  AEDD (AE leading to dose discontinuation): 3 (16.7) n (%)
  AEDM (AE leading to dose modification): 8 (44.4) n (%)
  Diarrhea AE grade ≥ 2: 5 (27.8) n (%)
  Hyperglycemia AE grade ≥ 3: 2 (11.1) n (%)
  Increased BG > 13.9 mmol/L: 3 (16.7) n (%)
  Rash AE grade ≥ 2: 5 (27.8) n (%)
  SAE: 4 (22.2) n (%)
[5]
  AE grade ≥ 1: 16 (100) n (%)
  AE grade ≥ 3: 15 (93.8) n (%)
  AEDD (AE leading to dose discontinuation): 7 (43.8) n (%)
  AEDM (AE leading to dose modification): 15 (93.8) n (%)
  Diarrhea AE grade ≥ 2: 10 (62.5) n (%)
  Hyperglycemia AE grade ≥ 3: 4 (25.0) n (%)
  Increased BG > 13.9 mmol/L: 7 (43.8) n (%)
  Rash AE grade ≥ 2: 8 (50.0) n (%)
  SAE: 6 (37.5) n (%)
[6]
  AE grade ≥ 1: 6 (100) n (%)
  AE grade ≥ 3: 6 (100) n (%)
  AEDD (AE leading to dose discontinuation): 4 (66.7) n (%)
  AEDM (AE leading to dose modification): 5 (83.3) n (%)
  Diarrhea AE grade ≥ 2: 5 (83.3) n (%)
  Hyperglycemia AE grade ≥ 3: 2 (33.3) n (%)
  Increased BG > 13.9 mmol/L: 2 (33.3) n (%)
  Rash AE grade ≥ 2: 3 (50.0) n (%)
  SAE: 6 (100) n (%)
[7]
  AE grade ≥ 1: 2 (100) n (%)
  AE grade ≥ 3: 2 (100) n (%)
  AEDD (AE leading to dose discontinuation): 2 (100) n (%)
  AEDM (AE leading to dose modification): 1 (50.0) n (%)
  Diarrhea AE grade ≥ 2: 1 (50.0) n (%)
  Hyperglycemia AE grade ≥ 3: 0 n (%)
  Increased BG > 13.9 mmol/L: 1 (50.0) n (%)
  Rash AE grade ≥ 2: 2 (100) n (%)
  SAE: 2 (100) n (%)
[8]
  AE grade ≥ 1: 274 (98.9) n (%)
  AE grade ≥ 3: 182 (65.7) n (%)
  AEDD (AE leading to dose discontinuation): 51 (18.4) n (%)
  AEDM (AE leading to dose modification): 139 (50.2) n (%)
  Diarrhea AE grade ≥ 2: 102 (36.8) n (%)
  Hyperglycemia AE grade ≥ 3: 72 (26.0) n (%)
  Increased BG > 13.9 mmol/L: 126 (45.5) n (%)
  Rash AE grade ≥ 2: 73 (26.4) n (%)
  SAE: 107 (38.6) n (%)
[9]
  AE grade ≥ 1: 14 (100) n (%)
  AE grade ≥ 3: 11 (78.6) n (%)
  AEDD (AE leading to dose discontinuation): 2 (14.3) n (%)
  AEDM (AE leading to dose modification): 2 (14.3) n (%)
  Diarrhea AE grade ≥ 2: 3 (21.4) n (%)
  Hyperglycemia AE grade ≥ 3: 7 (50.0) n (%)
  Increased BG > 13.9 mmol/L: 8 (57.1) n (%)
  Rash AE grade ≥ 2: 2 (14.3) n (%)
  SAE: 7 (50.0) n (%)
[10]
  AE grade ≥ 1: 14 (100) n (%)
  AE grade ≥ 3: 8 (57.1) n (%)
  AEDD (AE leading to dose discontinuation): 1 (7.1) n (%)
  AEDM (AE leading to dose modification): 8 (57.1) n (%)
  Diarrhea AE grade ≥ 2: 3 (21.4) n (%)
  Hyperglycemia AE grade ≥ 3: 5 (35.7) n (%)
  Increased BG > 13.9 mmol/L: 9 (64.3) n (%)
  Rash AE grade ≥ 2: 2 (14.3) n (%)
  SAE: 5 (35.7) n (%)
[11]
  AE grade ≥ 1: 6 (75.0) n (%)
  AE grade ≥ 3: 3 (37.5) n (%)
  AEDD (AE leading to dose discontinuation): 0 n (%)
  AEDM (AE leading to dose modification): 3 (37.5) n (%)
  Diarrhea AE grade ≥ 2: 4 (50.0) n (%)
  Hyperglycemia AE grade ≥ 3: 1 (12.5) n (%)
  Increased BG > 13.9 mmol/L: 3 (37.5) n (%)
  Rash AE grade ≥ 2: 1 (12.5) n (%)
  SAE: 0 n (%)
[12]
  AE grade ≥ 1: 163 (100) n (%)
  AE grade ≥ 3: 114 (69.9) n (%)
  AEDD (AE leading to dose discontinuation): 27 (16.6) n (%)
  AEDM (AE leading to dose modification): 90 (55.2) n (%)
  Diarrhea AE grade ≥ 2: 64 (39.3) n (%)
  Hyperglycemia AE grade ≥ 3: 45 (27.6) n (%)
  Increased BG > 13.9 mmol/L: 82 (50.3) n (%)
  Rash AE grade ≥ 2: 45 (27.6) n (%)
  SAE: 68 (41.7) n (%)
[13]
  AE grade ≥ 1: 10 (100) n (%)
  AE grade ≥ 3: 7 (70.0) n (%)
  AEDD (AE leading to dose discontinuation): 4 (40) n (%)
  AEDM (AE leading to dose modification): 2 (20.0) n (%)
  Diarrhea AE grade ≥ 2: 3 (30.0) n (%)
  Hyperglycemia AE grade ≥ 3: 4 (40.0) n (%)
  Increased BG > 13.9 mmol/L: 7 (70.0) n (%)
  Rash AE grade ≥ 2: 0 n (%)
  SAE: 6 (60.0) n (%)
[14]
  patients with AE grade ≥ 1: 98.9%
  patients with AEs grade ≥ 3: 65.7%
  patients with AEs leading to dose discontinuation: 18.4%
  patients with AEs leading to dose modification: 50.2%
  patients with SAEs: 38.6%
  patients with diarrhea AE grade ≥ 2: 36.8%
  patients with hyperglycemia grade ≥ 3: 26.0%
  patients with increased blood glucose > 13.9 mmol/L: 45.5%
  patients with rash AE grade ≥ 2: 26.4%
